For 102 molecules, cytotoxicity results are on record in ChEMBL document CHEMBL3507680, “University of Dundee, Gates Library screen for HepG2 cell viability”.

The series can be described thus: Human HepG2 cell viability assay in 384 well format. It counts as toxicity, cell-based. Also on record: dose 125 nL, time 70.5 hour; concentration not given beside the values. The note with it: HepG2 cells, read-out: Inhibition.

Consider `O=C(c1cc2c(F)cccc2[nH]1)N1CCCCC1Cn1cccn1` (configuration not stated), for which the cytotoxicity at 70.5 h came out at 3.2%. To `COc1ccc(C(O)CN2CC(n3nc(C)cc3C)C2)cc1` (configuration not stated) belongs 1.87%; to `Cc1cc(C)n(C2CN(CC(O)c3cc(F)ccc3F)C2)n1` (configuration not stated), 6.16%. To `Cc1ccc2cc(C(=O)N3CCCC3Cn3cccn3)[nH]c2c1` (configuration not stated) belongs 24.4%; to `Cc1cc(C)n(C2CN(CC(O)c3ccc(S(C)(=O)=O)cc3)C2)n1` (configuration not stated), 0.799%. To `Cn1cc(CCNC(=O)NC2CCN(Cc3ccccn3)CC2)cn1` belongs 31.9%.

Consider `CC(C)c1noc(CCCC(=O)NCC2CCS(=O)(=O)C2)n1` (configuration not stated), for which the cytotoxicity at 70.5 h came to 22.3%. With `COc1cccc(CNc2cc(N3CCCC3CO)ncn2)n1` (configuration not stated), the cytotoxicity at 70.5 h is -0.345%.

For the molecule `COc1c(C)cnc(CN2CCOC(CNc3cccnn3)C2)c1C` (configuration not stated), the cytotoxicity at 70.5 h turned out to be 3.14%. To `CCN(Cc1ccc2c(c1)OCCO2)C(=O)NC(C)Cn1cccn1` (configuration not stated) belongs 0.788%; to `O=C(Cc1ccc2c(c1)OCCO2)NC1CC1`, 0.821%. To `O=C(Cc1ccc2c(c1)OCCO2)NC1CCCCC1` belongs -1.15%; to `CN(C)c1cc(CNC(=O)c2cc(F)ccc2F)ccn1`, 0.104%.

For the molecule `CN(C)c1cc(CNC(=O)c2c(F)cccc2F)ccn1`, the cytotoxicity at 70.5 h amounted to 1.27%. To `O=C(NCCCN1CCCCC1)c1n[nH]c(=O)c2ccccc12` belongs 25%; to `CN(C)c1cc(CNC(=O)c2ccccc2S(C)(=O)=O)ccn1`, 0.46%; to `O=C(Cc1ccc(F)c(Br)c1)NC1CCN(CC(F)F)CC1`, 3.07%. Consider `CC(c1ccc(F)cc1)N1CCN(Cc2nccn2C)CC1` (configuration not stated), for which the cytotoxicity at 70.5 h came out at 4.48%.

Turning to `COc1cc(CNc2cc(N3CCCC3CO)ncn2)ccn1` (configuration not stated), the cytotoxicity at 70.5 h worked out at 24.7%.

As for `COc1nc(C)ccc1CNc1cc(N2CCCC2CO)ncn1` (configuration not stated), the cytotoxicity at 70.5 h came out at 7.33%. To `OCC1CCCN1c1cc(NCc2cccc3cccnc23)ncn1` (configuration not stated) belongs 3.27%. To `CC(C)c1nc(CN(C)C2CCN(CCS(C)(=O)=O)C2)no1` (configuration not stated) belongs -4.02%; to `CCc1nc(CN(C)C2CCN(CC(=O)N(C)C)C2)no1` (configuration not stated), -5.61%.

As for `Cc1ccc(NC2CCN(C(=O)c3cccnc3N(C)C)CC2)nn1`, the cytotoxicity at 70.5 h was determined as 0.412%.

For `O=C(NCc1ccco1)N(CCCO)C1CCCc2ccccc21` (configuration not stated), the cytotoxicity at 70.5 h is -5.76%.

As for `CCc1[nH]ncc1C(=O)N1CCCC(n2nc(C)cc2C)C1` (configuration not stated), the cytotoxicity at 70.5 h is -10.3%. To `CN(CCC(=O)N1CCc2sccc2C1)Cc1cnn(C)c1` belongs -2.72%; to `CC(C)c1ncc2c(n1)CN(CCCc1nc3ccccc3o1)CC2`, -3.98%; to `CCc1ccc(C(N)c2cccc(S(C)(=O)=O)c2)cc1` (configuration not stated), -4.78%. To `CCc1nc(C2CCCN2Cc2cnc(C)cn2)no1` (configuration not stated) belongs -3.7%; to `Cc1cnc(CN2CCCC2c2noc(C(C)C)n2)cn1` (configuration not stated), 1.04%. To `CN(CCC(=O)N1CCc2sccc2C1)Cc1cc(Br)cs1` belongs -4.84%; to `Cc1noc(C)c1CC(=O)N1CCc2sccc2C1`, -4.18%; to `COc1ccc(C)cc1C(C)NC(=O)CCn1cncn1` (configuration not stated), -5.61%. In the case of `O=C(c1cccc2ncccc12)N1CCC(Nc2cccnn2)CC1`, the cytotoxicity at 70.5 h was -3.36%. To `Cc1cccc(-c2ccc(C(=O)NCC3CCOC3)c(=O)[nH]2)c1` (configuration not stated) belongs -28.7%; to `COCCNC(=O)C1(c2ccccc2C)CCOCC1`, 17.1%; to `Cc1ccccc1CN1CCN(Cc2nccn2C)CC1`, -8.12%. To `CC(C)c1noc(C(C)N2CCN(CCN3CCCC3=O)CC2)n1` (configuration not stated) belongs -11.8%; to `Cn1ccnc1CN1CCN(CC(=O)NCC(F)(F)F)CC1`, -10.6%. To `CC(C)n1cc(CN2CCCN(C(=O)c3cc(Cl)c[nH]3)CC2)cn1` belongs 1.03%. Consider `Cc1ccc(CNC(C)c2ccc3[nH]c(=O)[nH]c3c2)s1` (configuration not stated), for which the cytotoxicity at 70.5 h was -1.82%. As to `Cn1ncc2c(=O)[nH]c(N3CCN(C(=O)c4ccsc4)CC3)nc21`, the cytotoxicity at 70.5 h came to 14.1%. To `CC(C)C(C(=O)N1CCC(Nc2cccnn2)CC1)n1cncn1` (configuration not stated) belongs -11.9%. To `Cc1nc(N2CCN(C(=O)c3ccc(O)cc3)CC2)c2cnn(C)c2n1` belongs -18.5%; to `CN(Cc1nnc(-c2ccco2)o1)C1CCCN(c2cccnn2)C1` (configuration not stated), 36.8%. As for `CCOc1c(Cl)cccc1NCc1cc(C)on1`, the cytotoxicity at 70.5 h came to 6.44%. To `Cc1ccc(S(=O)(=O)N2CCOc3ccccc32)cc1C(=O)O` belongs -1.56%; to `COc1ccc(CNCc2ccnc(N3CCOCC3)c2)cc1OC`, -10.1%; to `CCc1ccc(O)c(C(=O)NC2CCN(S(=O)(=O)CC)CC2)c1`, 8.84%. To `CCc1ccc(O)c(C(=O)NC2CCN(Cc3ccncc3)CC2)c1` belongs 17.7%; to `CN(C)c1cc(CNC(=O)Nc2ccc(S(C)(=O)=O)nc2)ccn1`, -15.4%. To `CN1CCOC(CNC(=O)CCCOc2ccccc2F)C1` (configuration not stated) belongs -15.3%; to `Cc1nn(C)c(N(C)C)c1CNCCNS(C)(=O)=O`, -7.58%; to `CN1CCOC(CNC(=O)CCCOCCc2ccccc2)C1` (configuration not stated), -14.2%. Turning to `Cc1cnn(C2CCCN(C(=O)c3sccc3-n3cnnn3)C2)c1` (configuration not stated), the cytotoxicity at 70.5 h was -2.63%.

In the case of `Cc1nn(-c2ccccc2)c(C)c1CNC1CCc2ncnn2C1` (configuration not stated), the cytotoxicity at 70.5 h is 1.33%. To `Cc1nc(-c2nnc[nH]2)sc1C(=O)N(Cc1cccnc1)C1CC1` belongs 9.64%; to `Cc1ccc(NC(=O)C2CSCN2C(=O)c2cnccn2)c(C)c1` (configuration not stated), -5.93%; to `Cc1ccc(NC(=O)C2CSCN2C(=O)c2cnn(C)c2)c(C)c1` (configuration not stated), -4.99%. To `Cc1c(F)cc(C(=O)O)cc1S(=O)(=O)Nc1ccc2c(c1)OCCO2` belongs -2.52%; to `c1cc(-c2noc(CN3CCn4c(nnc4C4CC4)C3)n2)co1`, -0.323%; to `Cc1cc(OCC(=O)NS(=O)(=O)c2c(C)noc2C)ccc1Cl`, -7.45%. With `CC(C)(C)c1nnc(CN2CCCC(Cn3cncn3)C2)o1` (configuration not stated), the cytotoxicity at 70.5 h is -5.42%. Take `Cc1n[nH]c(C)c1C1COCCN1C(=O)c1ccccc1` (configuration not stated): the cytotoxicity at 70.5 h was -8.5%.

In the case of `COc1ccc(CNCc2ccnc(N3CCCCC3)c2)cc1OC`, the cytotoxicity at 70.5 h is -4.98%. To `Cn1cnc2c1CCN(Cc1csc(-c3ccsc3)n1)C2` belongs 20.4%; to `Cc1noc(C2CCN(C(=O)CCc3nccs3)CC2)n1`, 21.5%; to `CC(C)n1ccnc1CN1CCCN(C(=O)c2cccnc2O)CC1`, 23.5%. For `CCc1nc(C2CCCN2CCc2ccccn2)no1` (configuration not stated), the cytotoxicity at 70.5 h was 24.9%. Turning to `COc1cccc(-n2nnc(C(=O)N3CCN(C)CC3C)c2C)c1` (configuration not stated), the cytotoxicity at 70.5 h is 56.4%. To `Cc1noc(C2CCN(C(=O)CCNc3ncccn3)CC2)n1` belongs -1.06%.

For `CC(C)c1nc(CC(=O)N2CCCC(n3cncn3)C2)cs1` (configuration not stated), the cytotoxicity at 70.5 h stood at 2.88%.

As for `CNC(=O)COc1ccccc1CNC1CCc2ncnn2C1` (configuration not stated), the cytotoxicity at 70.5 h was 29.2%. To `CC(C)n1ccnc1CN1CCCN(C(=O)c2nccnc2N)CC1` belongs -16.3%; to `O=C(NCCn1ccnc1)N1CCCC1c1ccsc1` (configuration not stated), -4.3%.

`O=C(c1cc(C2CC2)on1)N1CCCC(n2cncn2)C1` (configuration not stated): the cytotoxicity at 70.5 h was determined as 30.6%.

With `O=C(Cc1cn2ccsc2n1)N1CCCC(n2cncn2)C1` (configuration not stated), the cytotoxicity at 70.5 h came to 0.86%. For `O=C(Nc1cccc2c1CCCC2)C1CCCN1c1nccs1` (configuration not stated), the cytotoxicity at 70.5 h worked out at 2.35%. To `O=C(c1ccc(OCC2CC2)nc1)N1CCCC(n2ccnc2)C1` (configuration not stated) belongs -14.6%; to `CC1COCCN1C(=O)c1cccc(OCc2cscn2)c1` (configuration not stated), -8.23%; to `O=C(NCC1CCOC1)Nc1ccc(OCC(F)(F)F)nc1` (configuration not stated), -10.7%. To `Cc1ccc(Oc2ccc(NC(=O)NCC3CCOC3)cn2)cc1C` (configuration not stated) belongs 4.23%. To `COCC(C)N(C)C(=O)c1nc(S(C)(=O)=O)n2ccccc12` (configuration not stated) belongs -0.102%; to `Cc1ccc(C(=O)N2CCN(CCc3cccs3)CC2)c(=O)[nH]1`, -8.54%; to `Cc1cc(C2CCCN2Cc2ccn(C)c(=O)c2)no1` (configuration not stated), -1.78%. For `Cn1ccc(CN2CCC(NC(=O)Cc3ccccc3)CC2)cc1=O`, the cytotoxicity at 70.5 h turned out to be 2.35%.

With `Cc1cnn(C2CCCN(C(=O)c3cc(C4CC4)on3)C2)c1` (configuration not stated), the cytotoxicity at 70.5 h was -4.84%.

Take `Cc1ccc(-c2nc(CN3CCc4c(ncn4C)C3)cs2)o1`: the cytotoxicity at 70.5 h was 36.9%. To `O=C(c1cc(C2CC2)[nH]n1)N1CCCC(n2cncn2)C1` (configuration not stated) belongs -0.297%; to `O=C1NCc2ccc(NC(=O)C3CCCN3c3nccs3)cc21` (configuration not stated), -9.24%; to `CS(=O)(=O)NCC1CCCN(C(=O)COc2ccc(F)cc2)C1` (configuration not stated), -15.8%. To `NC(=O)CN1CCC(NC(=O)Nc2nccs2)CC1` belongs 21.5%; to `O=C(Nc1nnc(C2CC2)s1)NC1CCN(Cc2ccccc2)C1` (configuration not stated), -28%.

Consider `Cc1cccc(N2CCN(C(=O)Nc3cnn(CC(N)=O)c3)CC2)c1`, for which the cytotoxicity at 70.5 h is -18.1%. To `Cc1noc(C2CCN(C(=O)c3ccc(NC4CC4)nc3)CC2)n1` belongs -10.2%; to `Cc1ccc(C(CNC(=O)NCc2cc[nH]n2)N2CCOCC2)o1` (configuration not stated), -14.3%; to `NC(=O)Cn1cc(NC(=O)N2CCCC2)cn1`, -29.6%. To `Cn1cnc2c1CCN(Cc1cccc(OCC(N)=O)c1)C2` belongs -9.69%; to `Cc1cc(CN2CCCC2Cn2cncn2)no1` (configuration not stated), 26.7%; to `COc1ccc(CNCC2CCN(CC(C)O)CC2)c2ccccc12` (configuration not stated), 29.8%. Regarding `CCn1ccnc1CN1CCCN(C(=O)c2cc(Cl)c[nH]2)CC1`, the cytotoxicity at 70.5 h was -12.8%.
